Laboratory results taken from patent US5886162A, “Lipophilic diakylaminomethylene prodrug derivatives for the inhibition of replication of viruses” (Research Foundation of State University of New York, priority 1991, dated 1999).
Where “and” joins values, the source holds several entries; their conditions need not be identical. Identical values can stand only once. Like-named read-outs stand apart in the source and are kept apart here. Blank lines part the entries; values can stand above or below the molecule they belong to.

Key:
viral replication = details: background; cited from earlier work
[1] = cited from earlier work
[2] = Reverse phase HPLC retention time comparison (lipophilicity); format: physicochemical; details: measure of lipophilicity
From the text: A series of compounds were produced in accord with the method of Example 1 with various substitutions of 2' deoxycytidine at the N^4 position of the dialkylaminomethylene side chain.
Because of economic considerations 2'-deoxycytidine, was used as the parent nucleoside for comparison purposes in this study.

[3] = Rate of hydrolysis in phosphate buffer by UV spectroscopy and HPLC; format: physicochemical; details: 10 mM K-phosphate buffer, pH 7.4, read-out: half-life (t1/2) of hydrolysis (converted)
Description: The rates of hydrolysis of the different derivatives appear to depend greatly on the structure of the substituent introduced at the exocyclic NH2 group. For example, the half-life (t1/2) of N^4 -dimethylaminomethylene […] (compound 3 in Table 1) is 5 hours at 37° in 10 mM K-phosphate buffer at pH 7.4, as determined by UV spectroscopy and HPLC analysis. Under the same conditions, N^4 -diisopropylamino-methylene-2'-deoxycytidine (compound 7 in Table 1) has a t1/2 =3 days. Thus, there is an order of magnitude difference in the rate of hydrolysis of these two side chains. The variations in the susceptibility to hydrolysis provide another parameter for the optimization of the pharmacokinetic profile.

[4] = system: human immunodeficiency virus (HIV-1, strain LAV); experiment: NCI in vitro anti-HIV drug screen, antiviral activity; format: cell-based; details: for activity against human immunodeficiency virus: HIV-1, strain LAV, NCI In-Vitro Testing Program
Description: (§1) The protocol used in NCI's Developmental Therapeutics Program AIDS antiviral drug screening program involves plating of susceptible human "host" cells with and without virus in microculture plates, adding various concentrations of test material, incubating the plates for seven days (during which time infected, non-drug treated control cells are largely or totally destroyed by the virus), and then determining the number of remaining viable cells using a calorimetric endpoint. The dose dependent antiviral activity and cytotoxicity were determined and plotted on a graph illustrated as FIG. 1.
(§2) Two parameters are extracted from the curves illustrated in FIG. 1: the EC50, representing the concentration of drug that results in a 50% reduction of the viral cytopathic effect; and the IC50, representing the concentration of drug resulting in 50% cytotoxicity (growth inhibition derived from the normal, uninfected cultures). An in-vitro therapeutic index (TI) may be calculated as the ratio (IC50 /EC50)if both values are obtained.

HIV = experiment: NCI in vitro anti-HIV drug screen, protection of CEM cells against HIV; format: cell-based; details: Human immunodeficiency virus 1, CCRF-CEM, 168 h; CEM cell line; read-out: concentration giving complete protection against HIV
Description: as §1, §2

CEM = experiment: NCI in vitro anti-HIV drug screen, cytotoxicity, CEM cells; format: cell-based, human; details: CEM cell line, 8 micromolar
Description: as §1, §2

[5] = as above; format: cell-based, human; details: human, cem cells, CEM, read-out: IC50 (cytotoxicity)
Description: as §1, §2

[6] = NCI in vitro anti-HIV drug screen, cytotoxicity, ATH8 cells; format: cell-based; details: human, ATH8, test of 9-08-87, uninfected cultures, seven days, read-out: IC50 (cytotoxicity)
Description: as §1, §2

[7] = NCI in vitro anti-HIV drug screen, cytotoxicity, C3-44 cells; format: cell-based; details: human, C3-44, tests of 3-15-88 and 3-16-88, uninfected cultures, seven days, read-out: IC50 (cytotoxicity)
Description: as §1, §2

[8] = NCI in vitro anti-HIV drug screen, cytotoxicity, MT-2 cells; format: cell-based; details: human, MT-2, tests of 1-29-88 and 3-25-88, uninfected cultures, seven days, read-out: IC50 (cytotoxicity)
Description: as §1, §2

viral p24 antigen = experiment: Viral p24 antigen by enzyme-linked immunosorbent assay in CEM cells; format: cell-based, HIV; details: FIG. 2
[9] = NCI in vitro anti-HIV drug screen, cytotoxicity, LDV-7 cells; format: cell-based; details: human, LDV-7, tests of 3-15-88, 3-16-88, 3-25-88, uninfected cultures, seven days, read-out: IC50 (cytotoxicity)
Description: as §1, §2

[10] = system: five different cell lines; experiment: NCI in vitro anti-HIV drug screen, cytotoxicity, five different cell lines; format: cell-based, human; details: all five different cell lines, up to highest concentration employed
Description: as §1, §2

[11] = as above; format: cell-based, human; details: human; all five different cell lines; IC50 could not be reached up to highest concentration employed; read-out: IC50 (50% cytotoxicity)
Description: as §1, §2

SMILES: Nc1ncnc2c1ncn2[C@H]1CC[C@@H](CO)O1 [2', 3'-dideoxyadenosine]
inhibition of viral replication (viral replication): effective in inhibiting viral replication

SMILES: Cc1cn([C@H]2C[C@H](N=[N+]=[N-])[C@@H](CO)O2)c(=O)[nH]c1=O [AZT]
half-life ([1]; human, in vivo): short half-life
therapeutic benefit ([1]; patients with AIDS or AIDS related complex (ARC)): considerable therapeutic benefit
bone marrow toxicity ([1]; patients, ddC compared to AZT, Phase I and II trials): severe bone marrow toxicity

SMILES: Nc1ccn([C@H]2C[C@H](O)[C@@H](CO)O2)c(=O)n1 [Compound 1, 2'-Deoxycytidine, reference compound]
RETENTION TIME [2]: 2.13 min

SMILES: O=c1nc(N=CN2CCOCC2)ccn1[C@H]1C[C@H](O)[C@@H](CO)O1 [Compound 2, N^4 -Morpholinomethylene-2'-deoxycytidine]
RETENTION TIME [2]: 3.07 min

SMILES: CN(C)C=Nc1ccn([C@H]2CC[C@@H](CO)O2)c(=O)n1 [DAM-ddC, N^4-dimethylaminomethylene-2', 3'-dideoxycytidine]
activity against human immunodeficiency virus [4]: Significant activity
antiviral activity ([4]; anti-HIV drug screen, FIG. 3): significant antiviral activity

SMILES: CN(C)C=Nc1ccn([C@H]2C[C@H](F)[C@@H](CO)O2)c(=O)n1 [DDFC, N^4-dimethylaminomethylene-2', 3'-dideoxy-3'-fluorocytidine]
EC100 (HIV): 8 µM
antiviral activity in several cell lines ([4]; FIG. 1, several cell lines): significant antiviral activity
activity against human immunodeficiency virus [4]: Significant activity
cytotoxicity at the concentration of complete protection (CEM): without any cytotoxicity
CC50 at 168 h ([5]; test of 1-23-88, highest concentration tested): > 200 nM and > 0.055 µg/mL
CC50 at 168 h ([5]; tests of 1-13-88, 3-15-88, 3-25-88, 3-16-88, uninfected cultures, seven days): > 200 µM and > 56 µg/mL
CC50 at 168 h [6]: > 200 µM and > 56 µg/mL
CC50 at 168 h [7]: > 200 µM and > 56 µg/mL
CC50 at 168 h [8]: > 200 µM and > 56 µg/mL
correlation of protection against cytopathic effect of HIV with p24 antigen (viral p24 antigen): correlated with the decrease in the presence of viral p24 antigen
CC50 at 168 h [9]: > 200 µM and > 56 µg/mL
cytotoxicity observed [10]: uniformly very little cytotoxicity
CC50 at 168 h [11]: > 200 µM

SMILES: Nc1ccn([C@H]2CC[C@@H](CO)O2)c(=O)n1 [ddC, 2', 3'-dideoxycytidine]
dose limiting toxicity ([1]; Phase I and II trials): peripheral neuropathy
bone marrow toxicity ([1]; human, in vivo): much less bone marrow suppression
inhibition of viral replication (viral replication): effective in inhibiting viral replication

Next, values leading:

half-life ([3]; 37°): 5 h
RETENTION TIME [2]: 3.26 min
SMILES: CN(C)C=Nc1ccn([C@H]2C[C@H](O)[C@@H](CO)O2)c(=O)n1 [Compound 3, N^4-dimethylaminomethylene-2'-deoxycytidine]

RETENTION TIME [2]: 5.16 min
SMILES: O=c1nc(N=CN2CCCC2)ccn1[C@H]1C[C@H](O)[C@@H](CO)O1 [Compound 4, N^4 -Pyrrolidinomethylene-2'-deoxycytidine]

RETENTION TIME [2]: 6.44 min
SMILES: CCN(C=Nc1ccn([C@H]2C[C@H](O)[C@@H](CO)O2)c(=O)n1)CC [Compound 5, N^4 -Diethylaminomethylene-2'-deoxycytidine]

RETENTION TIME [2]: 7.79 min
SMILES: O=c1nc(N=CN2CCCCC2)ccn1[C@H]1C[C@H](O)[C@@H](CO)O1 [Compound 6, N^4 -Piperidinomethylene-2' deoxycytidine]

half-life ([3]; same conditions: 37°): 72 h
SMILES: CC(C)N(C=Nc1ccn([C@H]2C[C@H](O)[C@@H](CO)O2)c(=O)n1)C(C)C [Compound 7, N^4 -Diisopropylamino-methylene-2'-deoxycytidine]

RETENTION TIME [2]: 21.81 min
SMILES: CC1CCCC(C)N1C=Nc1ccn([C@H]2C[C@H](O)[C@@H](CO)O2)c(=O)n1 (some centres unmarked) [Compound 8, N^4-2,6-Dimethylpiperidino-methylene-2'-deoxycytidine]

RETENTION TIME [2]: 125 min
SMILES: CCCCN(C=Nc1ccn([C@H]2C[C@H](O)[C@@H](CO)O2)c(=O)n1)CCCC [Compound 9, N^4 -Di-n-butylamino-methylene-2'-dioxycytidine]
